Measured values: US20050085651A1, “Crystal of N-long-chain acylglycine salt, method of production thereof, and detergent composition using said crystal” (AJINOMOTO CO., INC., priority 2003, published 2005)

How the values were obtained:
Type in all cases: physicochemical
[1] = Average particle diameter by sieving
Protocol: Using the GILSONIC AUTOSIEVER (GA-6, manufactured by GILSON), an about 2 g coarsely milled sample (pass through 425μ mesh) was sieved for 5 minutes and the resulting particles were classified by size; the average particle diameter was calculated from the weights of particles in respective classes.
(§1) The milled products of the crystals obtained in Examples 1-3 and the powder obtained in Comparative Example 2 were examined for dusting (scattering) and water solubility and dispersibility. Also, these powders were sieved and their average particle diameters were determined.

[2] = Water solubility: time taken to dissolve powder in water; conditions: second Ex. 1 powder, average particle size 20 μm; 1.5 g in 100 g of water at 30° C.
Protocol: as §1
In this test, solubility is defined as time taken to dissolve 1.5 g of powder in 100 g of water at 30° C.

[3] = Scattering (dusting) test of dropped powder; conditions: second Ex. 1 powder, average particle size 20 μm; relative ratio to Comparative Example 2
Protocol: as §1
Scattering was quantified as described below. A 5 g powder sample was dropped by a distance of 1.2 m from the top of a cylinder (diameter: 12.5 cm). Two seconds after the drop, the scattered powder was sucked from the inlet in the base of the cylinder for 6 seconds using a blower; the powder caught by filter paper (GB100R, manufactured by Advantest Corporation) on the blower surface was weighed. This weight was expressed as a relative ratio to the powder weight in Comparative Example 2.

[4] = Water dispersibility (lumping) evaluated by five panelists; conditions: second Ex. 1 powder, average particle size 20 μm
Protocol: as §1
Dispersibility was evaluated by five panelists. A 1-gram powder sample was placed in the palm of each panelist and rubbed and examined for lumping in the presence of a small amount of water. Findings were evaluated using a three-grade rating system: good (O) for no lumping, acceptable (Δ) for a small amount of lumping, and poor (x) for a large amount of lumping.

[5] = milled product of crystal (Com. Ex. 2: spray-dried powder), sieved

CCCCCCCCCCCCCC(=O)NCC(=O)[O-].[Na+] [Ex. 3, N-myristoylglycine Sodium Salt]
Average particle size [1, 5]: 87 μm

CCCCCCCCCCCC(=O)NCC(=O)[O-].[Na+] [Ex. 1, N-lauroylglycine Sodium Salt]
Dissolution rate [2]: 341 s | Scattering [3]: 0.87 | Dispersibility [4]: ◯ | Average particle size [1, 5]: 85 μm | Average particle size ([1]; second Ex. 1 powder (finer)): 20 μm
